Patent publication US10758534B2 (Vertex Pharmaceuticals Incorporated, priority 2014, dated 2020)

Each compound was assayed against T1, F508del (Homo sapiens, UniProt P13569, DEL508-508) (assay: Protocol 2: FRET membrane potential optical assay (VIPR), identification of correction compounds). Settings: Table 3; compounds of Table 1 as modulators of CFTR activity; protocol not stated.
T1 construct: expressed in transfected cells
Type: cell-based
Summary of the method: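 Single-addition HTS format: F508del-expressing NIH3T3 cells pre-incubated 16 hrs at 37° C. ± compound, with 27° C. culture as positive control. Channel activation by forskolin 10 μM and genistein 20 μM upon switch to gluconate bath, pH 7.4; read-out is FRET-based depolarization signal.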

T1 sequence (P13569 with tags, fused parts or gaps DEL508-508): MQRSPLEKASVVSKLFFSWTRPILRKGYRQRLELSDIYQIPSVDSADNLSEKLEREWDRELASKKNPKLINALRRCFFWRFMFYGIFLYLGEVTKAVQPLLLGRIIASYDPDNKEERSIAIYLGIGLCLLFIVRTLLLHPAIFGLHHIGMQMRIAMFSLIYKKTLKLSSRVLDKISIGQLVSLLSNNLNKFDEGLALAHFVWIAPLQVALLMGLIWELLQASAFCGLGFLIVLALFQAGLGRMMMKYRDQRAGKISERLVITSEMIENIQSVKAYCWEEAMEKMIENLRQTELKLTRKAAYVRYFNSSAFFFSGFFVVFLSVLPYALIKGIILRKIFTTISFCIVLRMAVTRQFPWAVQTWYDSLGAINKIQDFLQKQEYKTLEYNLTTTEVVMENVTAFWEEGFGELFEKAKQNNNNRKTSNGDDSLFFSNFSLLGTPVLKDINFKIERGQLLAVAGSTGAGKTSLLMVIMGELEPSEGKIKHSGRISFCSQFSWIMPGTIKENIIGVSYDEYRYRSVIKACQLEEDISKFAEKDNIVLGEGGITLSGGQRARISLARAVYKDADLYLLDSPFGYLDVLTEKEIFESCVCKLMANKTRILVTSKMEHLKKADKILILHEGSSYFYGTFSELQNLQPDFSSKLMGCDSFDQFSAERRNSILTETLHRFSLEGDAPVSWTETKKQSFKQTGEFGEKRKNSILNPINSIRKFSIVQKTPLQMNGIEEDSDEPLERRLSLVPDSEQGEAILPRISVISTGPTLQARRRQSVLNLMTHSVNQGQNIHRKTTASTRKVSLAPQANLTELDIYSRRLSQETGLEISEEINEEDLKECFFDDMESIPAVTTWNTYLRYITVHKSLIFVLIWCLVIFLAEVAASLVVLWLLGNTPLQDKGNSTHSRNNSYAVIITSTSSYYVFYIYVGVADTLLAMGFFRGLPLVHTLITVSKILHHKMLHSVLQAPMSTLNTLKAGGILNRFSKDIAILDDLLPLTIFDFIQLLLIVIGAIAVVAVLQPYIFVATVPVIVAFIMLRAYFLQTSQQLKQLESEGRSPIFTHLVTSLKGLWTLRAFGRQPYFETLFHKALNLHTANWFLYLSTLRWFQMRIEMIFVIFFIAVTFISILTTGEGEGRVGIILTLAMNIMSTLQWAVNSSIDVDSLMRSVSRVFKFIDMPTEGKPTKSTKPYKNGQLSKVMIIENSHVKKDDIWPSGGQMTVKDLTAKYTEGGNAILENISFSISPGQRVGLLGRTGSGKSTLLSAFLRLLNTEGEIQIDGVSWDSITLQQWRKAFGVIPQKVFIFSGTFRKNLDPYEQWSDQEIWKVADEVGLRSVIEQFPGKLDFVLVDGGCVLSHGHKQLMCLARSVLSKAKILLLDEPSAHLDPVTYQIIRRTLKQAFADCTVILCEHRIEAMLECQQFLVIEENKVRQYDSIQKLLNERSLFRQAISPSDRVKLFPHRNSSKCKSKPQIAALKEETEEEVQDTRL

| SMILES | EC30 |
| --- | --- |
| Cc1cc(C)c(Oc2nc(-c3cccc(C)n3)ccc2C(=O)NS(=O)(=O)c2cccc(N)n2)c(C)c1 [Compound 730, N-[(6-amino-2-pyridyl)sulfonyl]-6-(6-methyl-2-pyridyl)-2-(2,4,6-trimethylphenoxy)pyridine-3-carboxamide] | +++ (“+++” means <3 uM) |
| CC(C)COc1cc(F)cc(-c2ccc(C(=O)NS(=O)(=O)c3ccn[nH]3)c(N3CCCCCC3)n2)c1 [Compound 734, 2-(azepan-1-yl)-6-(3-fluoro-5-isobutoxy-phenyl)-N-(1H-pyrazol-5-ylsulfonyl)pyridine-3-carboxamide] | +++ (“+++” means <3 uM) |
| CC(C)COc1cc(F)cc(-c2ccc(C(=O)NS(=O)(=O)c3cccc(N)n3)c(N3CCCC(C)C3)n2)c1 (stereo not drawn) [Compound 735, N-[(6-amino-2-pyridyl)sulfonyl]-6-(3-fluoro-5-isobutoxy-phenyl)-2-(3-methyl-1-piperidyl)pyridine-3-carboxamide] | +++ (“+++” means <3 uM) |
| Cc1ccccc1Oc1nc(-c2cc(F)cc(OCC(C)C)c2)ccc1C(=O)NS(=O)(=O)c1ccn[nH]1 [Compound 738, 6-(3-fluoro-5-isobutoxy-phenyl)-2-(2-methylphenoxy)-N-(1H-pyrazol-5-ylsulfonyl)pyridine-3-carboxamide] | +++ (“+++” means <3 uM) |
| CC(C)COc1cc(F)cc(-c2ccc(C(=O)NS(=O)(=O)c3ccn[nH]3)c(N3CCc4ccccc43)n2)c1 [Compound 739, 6-(3-fluoro-5-isobutoxy-phenyl)-2-indolin-1-yl-N-(1H-pyrazol-5-ylsulfonyl)pyridine-3-carboxamide] | ++ (“++” means between 3 uM and 10 uM) |
| CC(C)Oc1ccc(-c2ccc(C(=O)NS(=O)(=O)c3ccn[nH]3)c(N3CCC[C@H](c4ccccc4)C3)n2)cn1 [Compound 741, 6-(6-isopropoxy-3-pyridyl)-2-[(3R)-3-phenyl-1-piperidyl]-N-(1H-pyrazol-5-ylsulfonyl)pyridine-3-carboxamide] | +++ (“+++” means <3 uM) |
| Cc1cccc(C)c1Cn1nc(-c2cccc(OC(C)(C)C)c2)cc1C(=O)NS(=O)(=O)c1ccccc1 [Compound 744, N-(benzenesulfonyl)-5-(3-tert-butoxyphenyl)-2-[(2,6-dimethylphenyl)methyl]pyrazole-3-carboxamide] | +++ (“+++” means <3 uM) |
| CNc1cccc(S(=O)(=O)NC(=O)C2Cc3ccccc3CCN2Cc2c(C)cc(C)cc2C)n1 (stereo not drawn) [Compound 747, N-[[6-(methylamino)-2-pyridyl]sulfonyl]-3-[(2,4,6-trimethylphenyl)methyl]-1,2,4,5-tetrahydro-3-benzazepine-4-carboxamide] | +++ (“+++” means <3 uM) |
| COC1CCCN(c2nc(-c3cc(F)cc(OCC(C)C)c3)ccc2C(=O)NS(=O)(=O)c2ccn[nH]2)C1 (stereo not drawn) [Compound 749, 6-(3-fluoro-5-isobutoxy-phenyl)-2-(3-methoxy-1-piperidyl)-N-(1H-pyrazol-5-ylsulfonyl)pyridine-3-carboxamide] | +++ (“+++” means <3 uM) |
| CC(C)COc1cc(F)cc(-c2ccc(C(=O)NS(=O)(=O)c3cccc(N)n3)c(N3[C@H](C)CC[C@H]3C)n2)c1 [Compound 751, N-[(6-amino-2-pyridyl)sulfonyl]-2-[(2R,5R)-2,5-dimethylpyrrolidin-1-yl]-6-(3-fluoro-5-isobutoxy-phenyl)pyridine-3-carboxamide] | +++ (“+++” means <3 uM) |
| CC(C)(C)c1ccc(C(=O)NS(=O)(=O)c2ccc(N)cc2)c(N2CCCCC2)n1 [Compound 753, N-(4-aminophenyl)sulfonyl-6-tert-butyl-2-(1-piperidyl)pyridine-3-carboxamide] | ++ (“++” means between 3 uM and 10 uM) |
| CC(C)COc1cc(F)cc(-c2ccc(C(=O)NS(=O)(=O)c3ccn[nH]3)c(N3CCCC(C)C3)n2)c1 (stereo not drawn) [Compound 756, 6-(3-fluoro-5-isobutoxy-phenyl)-2-(3-methyl-1-piperidyl)-N-(1H-pyrazol-5-ylsulfonyl)pyridine-3-carboxamide] | +++ (“+++” means <3 uM) |
| Cc1ccc(Oc2nc(-c3cc(F)cc(OCC(C)C)c3)ccc2C(=O)NS(=O)(=O)c2ccn[nH]2)cc1 [Compound 758, 6-(3-fluoro-5-isobutoxy-phenyl)-2-(4-methylphenoxy)-N-(1H-pyrazol-5-ylsulfonyl)pyridine-3-carboxamide] | ++ (“++” means between 3 uM and 10 uM) |

Continued, values first:

| EC30 | SMILES |
| --- | --- |
| +++ (“+++” means <3 uM) | CC(C)Oc1ccc(-c2ccc(C(=O)NS(=O)(=O)c3cccc(N)n3)c(N3CCCCC3c3ccccc3)n2)cn1 (stereo not drawn) [Compound 731, N-[(6-amino-2-pyridyl)sulfonyl]-6-(6-isopropoxy-3-pyridyl)-2-(2-phenyl-1-piperidyl)pyridine-3-carboxamide] |
| +++ (“+++” means <3 uM) | CC(C)Oc1ccc(-c2ccc(C(=O)NS(=O)(=O)c3cccc(N)n3)c(N3CCC4CCCC43)n2)cn1 (stereo not drawn) [Compound 732, 2-(3,3a,4,5,6,6a-hexahydro-2H-cyclopenta[b]pyrrol-1-yl)-N-[(6-amino-2-pyridyl)sulfonyl]-6-(6-isopropoxy-3-pyridyl)pyridine-3-carboxamide] |
| +++ (“+++” means <3 uM) | CC(C)Oc1ccc(-c2ccc(C(=O)NS(=O)(=O)c3cccc(N)n3)c(N3CCC4(CCC4)CC3)n2)cn1 [Compound 733, N-[(6-amino-2-pyridyl)sulfonyl]-2-(7-azaspiro[3.5]nonan-7-yl)-6-(6-isopropoxy-3-pyridyl)pyridine-3-carboxamide] |
| +++ (“+++” means <3 uM) | CC1CCN(c2nc(-c3ccc(OC(C)C)nc3)ccc2C(=O)NS(=O)(=O)c2cccc(N)n2)CC1 [Compound 736, N-[(6-amino-2-pyridyl)sulfonyl]-6-(6-isopropoxy-3-pyridyl)-2-(4-methyl-1-piperidyl)pyridine-3-carboxamide] |
| +++ (“+++” means <3 uM) | CC1CCN(c2nc(-c3cc(F)cc(OC(C)C)c3)ccc2C(=O)NS(=O)(=O)c2ccc[nH]c2=O)CC1 [Compound 737, 6-(3-fluoro-5-isopropoxy-phenyl)-2-(4-methyl-1-piperidyl)-N-[(2-oxo-1H-pyridin-3-yl)sulfonyl]pyridine-3-carboxamide] |
| ++ (“++” means between 3 uM and 10 uM) | CC(C)Oc1ccc(-c2ccc(C(=O)NS(=O)(=O)c3cccc(N)n3)c(N(C)CC3CC3)n2)cn1 [Compound 740, N-[(6-amino-2-pyridyl)sulfonyl]-2-[cyclopropylmethyl(methyl)amino]-6-(6-isopropoxy-3-pyridyl)pyridine-3-carboxamide] |
| +++ (“+++” means <3 uM) | CC(C)Oc1ccc(-c2ccc(C(=O)NS(=O)(=O)c3cccc(N)n3)c(N3CCC(c4ccccc4)CC3)n2)cn1 [Compound 742, N-[(6-amino-2-pyridyl)sulfonyl]-6-(6-isopropoxy-3-pyridyl)-2-(4-phenyl-1-piperidyl)pyridine-3-carboxamide] |
| +++ (“+++” means <3 uM) | Cc1cc(C)c(Oc2nc(C3CCC(C)CC3)ccc2C(=O)NS(=O)(=O)c2ccc[nH]c2=O)c(C)c1 (stereo not drawn) [Compound 743, 6-(4-methylcyclohexyl)-N-[(2-oxo-1H-pyridin-3-yl)sulfonyl]-2-(2,4,6-trimethylphenoxy)pyridine-3-carboxamide] |
| ++ (“++” means between 3 uM and 10 uM) | CC(C)Oc1ccc(-c2ccc(C(=O)NS(=O)(=O)c3cccc(N)n3)c(N3CCCC(F)C3)n2)cn1 (stereo not drawn) [Compound 745, N-[(6-amino-2-pyridyl)sulfonyl]-2-(3-fluoro-1-piperidyl)-6-(6-isopropoxy-3-pyridyl)pyridine-3-carboxamide] |
| +++ (“+++” means <3 uM) | Cc1cc(C)c(Oc2nc(N3CCCC3)ccc2C(=O)NS(=O)(=O)c2cccc(N)n2)c(C)c1 [Compound 746, N-[(6-amino-2-pyridyl)sulfonyl]-6-pyrrolidin-1-yl-2-(2,4,6-trimethylphenoxy)pyridine-3-carboxamide] |
| ++ (“++” means between 3 uM and 10 uM) | Cc1cc(C)c(Oc2nc(C3CCOCC3)ccc2C(=O)NS(=O)(=O)c2cccc(N)n2)c(C)c1 [Compound 748, N-[(6-amino-2-pyridyl)sulfonyl]-6-tetrahydropyran-4-yl-2-(2,4,6-trimethylphenoxy)pyridine-3-carboxamide] |
| +++ (“+++” means <3 uM) | CC1CCN(c2nc3c(cc2C(=O)NS(=O)(=O)c2cccc(N)n2)CCCC3(C)C)CC1 [Compound 750, N-[(6-amino-2-pyridyl)sulfonyl]-8,8-dimethyl-2-(4-methyl-1-piperidyl)-6,7-dihydro-5H-quinoline-3-carboxamide] |
| ++ (“++” means between 3 uM and 10 uM) | CC1(CNc2nc(C(C)(C)C)ccc2C(=O)NS(=O)(=O)c2ccc(N)cc2)CCOCC1 [Compound 752, N-(4-aminophenyl)sulfonyl-6-tert-butyl-2-[(4-methyltetrahydropyran-4-yl)methylamino]pyridine-3-carboxamide] |
| +++ (“+++” means <3 uM) | COc1ccc(-c2ccc(C(=O)NS(=O)(=O)c3cccc(N)n3)c(Oc3c(C)cc(C)cc3C)n2)c(OC)n1 [Compound 754, N-[(6-amino-2-pyridyl)sulfonyl]-6-(2,6-dimethoxy-3-pyridyl)-2-(2,4,6-trimethylphenoxy)pyridine-3-carboxamide] |
| ++ (“++” means between 3 uM and 10 uM) | Cn1ccc2cccc(Cn3nc(C(C)(C)C)cc3C(=O)NS(=O)(=O)c3cccc(N)c3)c21 [Compound 755, N-(3-aminophenyl)sulfonyl-5-tert-butyl-2-[(1-methylindol-7-yl)methyl]pyrazole-3-carboxamide] |
| +++ (“+++” means <3 uM) | CC(C)Oc1ccc(-c2ccc(C(=O)NS(=O)(=O)c3cccc(N)n3)c(N3CCC[C@@H](C)C3)n2)cn1 [Compound 757, N-[(6-amino-2-pyridyl)sulfonyl]-6-(6-isopropoxy-3-pyridyl)-2-[(3R)-3-methyl-1-piperidyl]pyridine-3-carboxamide] |
| +++ (“+++” means <3 uM) | COc1ncccc1S(=O)(=O)NC(=O)c1cc(C(C)(C)C)nn1Cc1c(C)cc(C)cc1C [Compound 759, 5-tert-butyl-N-[(2-methoxy-3-pyridyl)sulfonyl]-2-[(2,4,6-trimethylphenyl)methyl]pyrazole-3-carboxamide] |
